Format in all cases: in vivo
The nature of series [1]: Plasma drug concentration in cynomolgus monkeys on chow or high carbohydrate diet. Conditions: Example 8 3 mg/kg, Anacetrapib 10 mg/kg, mean ± SD; for Plasma [drug] ng/mL, Day 7, Chow / Plasma [drug] ng/mL, Day 14, Chow: chow diet; for Plasma [drug] ng/mL, Day 7, Chow / Plasma [drug] ng/mL, Day 7, High CHO: day 7, daily oral; for Plasma [drug] ng/mL, Day 14, Chow / Plasma [drug] ng/mL, Day 14, High CHO: day 14, daily oral; for Plasma [drug] ng/mL, Day 7, High CHO / Plasma [drug] ng/mL, Day 14, High CHO: high carbohydrate diet. The source says: (§1) Normal male cynomolgus monkeys (n=17) weighing between 8-14 kg are placed on a high-carbohydrate, low-fat diet. The caloric composition of the diet is approximately 13.4% protein, 79.1% carbohydrate (sugar to starch ratio 50:50) and 7.5% fat. Calories are derived from standard monkey chow (LabDiet® 5047, PMI, Richmond, Ind. or LabDiet® 5000, Balanced Fiber diet, PMI, Richmond, Ind.) in quantities necessary to meet the protein and fat requirements, with the remaining calories provided by sugar-sweetened cereals, candies, and fruit (banana, orange, cantaloupe, honeydew, pineapple). The high-carbohydrate (CHO) diet will be fed for 18 days (4 days of pre-drug diet, 14 days of drug treatment), after which time they will return to their regular chow diets for a 14 day washout period followed by a second 14 day dosing phase of the study (normal diet).
(§2) Compound of Example 8 is dissolved at 30 mg/mL in 1M NaOH+ethanol:maisoel glyceride:propylene glycol:cremophor RH40 (10:36:9:45) and diluted 1:10 in ddH2O. […] The formulations are prepared each day (weekend doses are prepared on Friday) and stored stirring and protected from light at room temperature until dosing. Artificial flavor and color will be added to the dose when prepared.
(§3) The animals will ingest the compounds (1 mL/kg) voluntarily from a plastic syringe offered at their home cage at approximately 8 am daily. Animals will be fed 60 minutes after the dose is administered.
(§4) Blood collection will take place weekly during each dosing phase. Animals are fasted overnight (approximately 16 hours) prior to blood collection. Blood samples are collected from a saphenous vein via needle and syringe and put into 2 mL EDTA-coated tubes that are immediately placed on ice until centrifugation. Samples are centrifuged at 3,000 rpm for 20 minutes. The plasma is collected, divided into aliquots (listed below), and stored at −70° C. until analysis.

Series [2] addresses T1, CETP (Macaca fascicularis, UniProt P47896).
T1 construct: from tissue; host or cells: EDTA plasma of cynomolgus monkeys dosed orally
T1 sequence (P47896 18-493): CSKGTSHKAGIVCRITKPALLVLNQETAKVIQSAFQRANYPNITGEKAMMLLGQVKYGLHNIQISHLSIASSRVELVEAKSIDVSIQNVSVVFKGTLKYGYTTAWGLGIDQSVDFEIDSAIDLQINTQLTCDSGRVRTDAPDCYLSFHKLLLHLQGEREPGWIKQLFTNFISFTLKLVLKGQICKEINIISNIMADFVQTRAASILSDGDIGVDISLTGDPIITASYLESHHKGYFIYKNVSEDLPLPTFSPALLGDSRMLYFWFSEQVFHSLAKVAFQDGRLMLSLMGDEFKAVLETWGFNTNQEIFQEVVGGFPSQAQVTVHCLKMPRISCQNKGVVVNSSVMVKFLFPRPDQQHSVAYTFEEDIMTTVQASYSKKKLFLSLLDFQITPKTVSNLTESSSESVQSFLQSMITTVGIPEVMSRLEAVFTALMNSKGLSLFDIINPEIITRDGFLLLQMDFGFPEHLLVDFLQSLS
The experiment in a line: Plasma CETP activity in cynomolgus monkeys on chow or high carbohydrate diet. Conditions: for CETP activity % Δ vs day 0, Day 7, Chow / CETP activity % Δ vs day 0, Day 14, Chow: chow diet; for CETP activity % Δ vs day 0, Day 7, Chow / CETP activity % Δ vs day 0, Day 7, High CHO: day 7, Example 8 3 mg/kg; for CETP activity % Δ vs day 0, Day 7, Chow / CETP activity % Δ vs day 0, Day 14, Chow / CETP activity % Δ vs day 0, Day 7, High CHO / CETP activity % Δ vs day 0, Day 14, High CHO: Anacetrapib 10 mg/kg, mean ± SD; for CETP activity % Δ vs day 0, Day 14, Chow / CETP activity % Δ vs day 0, Day 14, High CHO: day 14, Example 8 3 mg/kg; for CETP activity % Δ vs day 0, Day 7, High CHO / CETP activity % Δ vs day 0, Day 14, High CHO: high carbohydrate diet.
Description: as §1, §2, §3, §4

Series [3] can be described thus: HDL-C in cynomolgus monkeys on chow or high carbohydrate diet. Conditions: Anacetrapib 10 mg/kg, mean ± SD; for HDL-C % Δ vs day 0, Day 7, Chow / HDL-C % Δ vs day 0, Day 14, Chow: chow diet; for HDL-C % Δ vs day 0, Day 7, Chow / HDL-C % Δ vs day 0, Day 7, High CHO: day 7, Example 8 3 mg/kg; for HDL-C % Δ vs day 0, Day 14, Chow / HDL-C % Δ vs day 0, Day 14, High CHO: day 14, Example 8 3 mg/kg; for HDL-C % Δ vs day 0, Day 7, High CHO / HDL-C % Δ vs day 0, Day 14, High CHO: high carbohydrate diet.
Description: as §1, §2, §3, §4

Structures are written as SMILES.

As to `CC[C@@H]1C[C@H](N(Cc2cc(C(F)(F)F)cc(C(F)(F)F)c2)c2ncc(-c3cnn(C)c3)cn2)C[C@H](CC)N1C(=O)O[C@H]1CC[C@H](C(=O)O)CC1` [Example 8], in series [1], the “Plasma [drug] ng/mL, Day 7, Chow” value was determined as 983 ± 408 ng/mL; the “Plasma [drug] ng/mL, Day 14, Chow” value came out at 1015 ± 398 ng/mL; the “Plasma [drug] ng/mL, Day 7, High CHO” value is reported as 1706 ± 949 ng/mL; the “Plasma [drug] ng/mL, Day 14, High CHO” value was 1709 ± 800 ng/mL. For the same molecule, the “CETP inhibitory activity in monkeys with diet-induced hypertriglyceridemia” value in series [2] (TG>500 mg/dL) was “retains CEPT inhibitory activity”. In series [2], the “CETP activity % Δ vs day 0, Day 7, Chow” value was −78 ± 7%; the “CETP activity % Δ vs day 0, Day 14, Chow” value is reported as −73 ± 9%; the “CETP activity % Δ vs day 0, Day 7, High CHO” value was −72 ± 7%; the “CETP activity % Δ vs day 0, Day 14, High CHO” value was −66 ± 10%. Also, in series [3], the “HDL-C % Δ vs day 0, Day 7, Chow” value came out at 144 ± 57%; the “HDL-C % Δ vs day 0, Day 14, Chow” value is recorded as 142 ± 33%; the “HDL-C % Δ vs day 0, Day 7, High CHO” value is 210 ± 24%; the “HDL-C % Δ vs day 0, Day 14, High CHO” value amounted to 241 ± 29%.

Consider `COc1cc(F)c(C(C)C)cc1-c1ccc(C(F)(F)F)cc1CN1C(=O)O[C@H](c2cc(C(F)(F)F)cc(C(F)(F)F)c2)[C@@H]1C` [Anacetrapib, reference compound], for which, in series [1], the “Plasma [drug] ng/mL, Day 7, Chow” value turned out to be 272 ± 74 ng/mL; the “Plasma [drug] ng/mL, Day 14, Chow” value is 320 ± 93 ng/mL; the “Plasma [drug] ng/mL, Day 7, High CHO” value is 1836 ± 3694 ng/mL; the “Plasma [drug] ng/mL, Day 14, High CHO” value was determined as 1437 ± 2935 ng/mL. In series [2], the “CETP activity % Δ vs day 0, Day 7, Chow” value was −62 ± 15%; the “CETP activity % Δ vs day 0, Day 14, Chow” value is listed as −59 ± 19%; the “CETP activity % Δ vs day 0, Day 7, High CHO” value is recorded as −33 ± 23%; the “CETP activity % Δ vs day 0, Day 14, High CHO” value was −24 ± 22%. For the same molecule, in series [3], the “HDL-C % Δ vs day 0, Day 7, Chow” value stood at 141 ± 45%; the “HDL-C % Δ vs day 0, Day 14, Chow” value is 136 ± 28%; the “HDL-C % Δ vs day 0, Day 7, High CHO” value is 172 ± 34%; the “HDL-C % Δ vs day 0, Day 14, High CHO” value turned out to be 184 ± 45%.

(Values after patent US9867811B2, “Method of treating atherosclerosis in high triglyceride subjects” (NOVARTIS AG, priority 2011, dated 2018).)
